Eleven molecules from ChEMBL document CHEMBL1144669, “Pyridazinone derivatives: design, synthesis, and in vitro vasorelaxant activity” (2008) can be followed below.

This assay is described as follows: Vasorelaxant effect in rabbit pulmonary artery assessed as inhibition of KCl-induced contraction at 100 uM. The conditions noted are these: Oryctolagus cuniculus. It is filed as functional.
Turning to `Cc1[nH]c(=O)c(C#N)cc1-c1ccncc1` [MILRINONE], the inhibition (in general, how much of the control response was suppressed) at 100 µM is 60.5%. To `N#Cc1c(-c2cccc([N+](=O)[O-])c2)cc(-c2cccc(Nc3ccc(=O)[nH]n3)c2)[nH]c1=O` belongs 9.1%; to `COc1ccc2nc(C)cc(Nc3ccc(C4=NNC(=O)CC4C)cc3)c2c1` (stereo unspecified), 21.5%.

For `CCOC(=O)c1c[nH]c2ccc(C3=NNC(=O)CC3)cc2c1=O`, the inhibition at 100 µM came out at 14.5%.

As to `COc1ccc2nc(C)cc(Nc3ccc(C4=NNC(=O)CC4)c(C)c3)c2c1`, the inhibition at 100 µM came to 25%. Take `CCOc1ccc2nc(C)cc(Nc3ccc(C4=NNC(=O)CC4)c(O)c3)c2c1`: the inhibition at 100 µM worked out at 36.2%. As for `Cc1ccc2nc(C)cc(Nc3ccc(C4=NNC(=O)CC4C)cc3)c2c1` (stereo unspecified), the figure is 22.7%.

Take `N#Cc1c(-c2cccnc2)cc(-c2cccc(Nc3ccc(=O)[nH]n3)c2)[nH]c1=O`: the inhibition at 100 µM was found to be 8.17%. Turning to `COc1ccc2nc(C)cc(Nc3ccc(C4=NNC(=O)CC4)c(O)c3)c2c1`, the inhibition at 100 µM stood at 34.3%. For `Cc1ccc2nc(C)cc(Nc3ccc(C4=NNC(=O)CC4)c(O)c3)c2c1`, the inhibition at 100 µM was 18.5%.

For the molecule `CCOC(=O)c1c[nH]c2ccc(C3=NNC(=O)CC3C)cc2c1=O` (stereo unspecified), the inhibition at 100 µM was determined as 14.5%.
